The record followed here is patent US6608086B2, “Dihydropyridines and new uses thereof” (Synaptic Pharmaceutical Corporation, priority 1993, dated 2003).

Experiment [1] concerns the target T1, α1B Human Adrenergic Receptor (Homo sapiens, UniProt P35368).
T1 construct: The entire coding region of α1B (1563 bp); expressed in transfected cells
T1 sequence (P35368 1-520): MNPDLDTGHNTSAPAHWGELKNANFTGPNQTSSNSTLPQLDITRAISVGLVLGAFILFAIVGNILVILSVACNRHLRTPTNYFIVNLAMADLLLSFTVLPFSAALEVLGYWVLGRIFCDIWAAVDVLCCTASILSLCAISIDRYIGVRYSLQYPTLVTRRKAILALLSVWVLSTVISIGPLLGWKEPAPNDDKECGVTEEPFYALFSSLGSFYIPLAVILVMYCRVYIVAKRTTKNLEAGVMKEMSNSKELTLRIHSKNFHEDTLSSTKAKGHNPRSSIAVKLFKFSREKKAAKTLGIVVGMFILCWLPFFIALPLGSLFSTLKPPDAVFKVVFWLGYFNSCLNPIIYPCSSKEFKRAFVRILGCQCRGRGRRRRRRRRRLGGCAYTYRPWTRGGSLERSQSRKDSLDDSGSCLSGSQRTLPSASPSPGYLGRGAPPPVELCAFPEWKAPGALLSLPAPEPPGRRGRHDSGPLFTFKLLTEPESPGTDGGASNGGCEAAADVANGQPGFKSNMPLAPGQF
Put plainly: Radioligand binding, [3H]prazosin, cloned human α1B adrenergic receptor. An outline of the steps: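 [3H]prazosin (0.5 nM) binding was run for 20 min at 37° C in pH 7.5 Tris/MgCl2/ascorbate buffer on membranes of LM(tk−) cells stably expressing the cloned receptor. Filtration through GF/B ended the reaction; 10 μM phentolamine gave nonspecific binding.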

Experiment [2] has as its target T2, α2A receptor (Homo sapiens, UniProt P08913).
T2 construct: host or cells: LM(tk-) cells, line L-α2A
T2 sequence (P08913 1-465): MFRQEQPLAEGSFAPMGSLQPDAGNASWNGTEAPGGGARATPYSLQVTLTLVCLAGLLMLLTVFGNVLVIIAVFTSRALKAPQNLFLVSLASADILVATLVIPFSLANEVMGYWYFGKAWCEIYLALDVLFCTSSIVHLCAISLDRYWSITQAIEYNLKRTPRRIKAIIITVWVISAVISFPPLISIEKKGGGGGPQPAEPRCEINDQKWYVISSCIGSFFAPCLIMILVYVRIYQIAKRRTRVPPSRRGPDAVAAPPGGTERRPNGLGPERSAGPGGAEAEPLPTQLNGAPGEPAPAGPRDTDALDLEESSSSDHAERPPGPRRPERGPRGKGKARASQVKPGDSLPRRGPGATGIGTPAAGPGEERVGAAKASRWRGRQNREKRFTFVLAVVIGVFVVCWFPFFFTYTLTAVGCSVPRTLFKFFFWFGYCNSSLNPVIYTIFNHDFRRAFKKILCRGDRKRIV
The experiment can be described thus: Competition binding, [3H]rauwolscine, human α2A receptor. The source says: (§1) The protocols for these experiments are given below.
(§2) α2 Human Adrenergic Receptors:
(§3) To determine the potency of […], antagonists at the α2 receptors, LM(tk−) cell lines stably transfected with the genes encoding the α2A, α2B, and α2C receptors were used. The cell line expressing the α2A receptor is designated L-α2A, and was deposited on Nov. […] The cell line expressing the α2B receptor is designated L-NGC-α2B, and was deposited on Oct. […] The cell line expressing the α2C receptor is designated L-α2C, and was deposited on Nov. […] Cell lysates were prepared as described above (see Radioligand Binding Assays), and suspended in 25 mM glycylglycine buffer (pH 7.6 at room temperature). Equilibrium competition binding assay were performed using [3H]rauwolscine (0.5 nM), and nonspecific binding was determined by incubation with 10 μM phentolamine. The bound radioligand was separated by filtration through GF/B filters using a cell harvester.

The target of experiment [3] is T3, α2B receptor (Homo sapiens, UniProt P18089).
T3 construct: host or cells: LM(tk-) cells, line L-NGC-α2B
T3 sequence (P18089 1-450): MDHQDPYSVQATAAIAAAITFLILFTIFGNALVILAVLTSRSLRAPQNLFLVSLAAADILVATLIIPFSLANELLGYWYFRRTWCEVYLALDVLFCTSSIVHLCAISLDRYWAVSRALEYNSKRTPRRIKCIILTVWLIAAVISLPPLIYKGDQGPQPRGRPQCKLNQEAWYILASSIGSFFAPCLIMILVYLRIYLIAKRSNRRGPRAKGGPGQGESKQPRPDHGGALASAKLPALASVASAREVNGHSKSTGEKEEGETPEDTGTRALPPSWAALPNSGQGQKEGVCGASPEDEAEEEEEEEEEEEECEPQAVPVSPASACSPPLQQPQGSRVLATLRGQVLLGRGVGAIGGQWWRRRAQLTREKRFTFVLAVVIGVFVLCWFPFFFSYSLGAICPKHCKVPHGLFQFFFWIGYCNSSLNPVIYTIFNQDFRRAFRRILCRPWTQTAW
Put plainly: Competition binding, [3H]rauwolscine, human α2B receptor. An outline of the steps:
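Lysates of LM(tk−) cells stably expressing human α2A, α2B or α2C receptors in 25 mM glycylglycine pH 7.6. Equilibrium competition against 0.5 nM [3H]rauwolscine, with 10 μM phentolamine defining nonspecific binding. Bound ligand separated by GF/B filtration.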

The target of experiment [4] is T4, α2C receptor (Homo sapiens, UniProt P18825).
T4 construct: host or cells: LM(tk-) cells, line L-α2C
T4 sequence (P18825 1-462): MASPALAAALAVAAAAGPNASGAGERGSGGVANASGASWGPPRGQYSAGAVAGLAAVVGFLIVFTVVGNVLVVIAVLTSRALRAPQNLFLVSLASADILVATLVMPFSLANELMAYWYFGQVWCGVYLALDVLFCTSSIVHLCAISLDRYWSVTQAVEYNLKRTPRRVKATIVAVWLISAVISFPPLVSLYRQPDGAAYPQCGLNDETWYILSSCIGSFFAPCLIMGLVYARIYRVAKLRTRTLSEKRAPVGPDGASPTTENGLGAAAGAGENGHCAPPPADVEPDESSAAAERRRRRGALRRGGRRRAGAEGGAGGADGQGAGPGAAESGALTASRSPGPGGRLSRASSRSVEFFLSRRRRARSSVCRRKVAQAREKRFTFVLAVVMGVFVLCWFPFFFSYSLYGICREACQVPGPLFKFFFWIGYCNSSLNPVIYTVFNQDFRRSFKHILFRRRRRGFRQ
The experiment can be described thus: Competition binding, [3H]rauwolscine, human α2C receptor.
Source text: as §1, §2, §3

[5] abbreviates: cloned human receptor in LM(tk-) cell membranes, SEM and n in lines below.
The mark [6] stands for this setting: [3H]rauwolscine, LM(tk-) cell line L-NGC-α2B, SEM and n in lines below.
Where [7] appears, read: [3H]rauwolscine, LM(tk-) cell line L-α2C, SEM and n in lines below.
[8] abbreviates: cloned human receptor, LM(tk-) cell membranes, mean, read-out: PKi alpha-1 1b (converted).
[9] abbreviates: [3H]rauwolscine, human receptor, LM(tk-) cell lysates, mean, read-out: PKi alpha-2 2a (converted).
The mark [10] stands for this setting: [3H]rauwolscine, human receptor, LM(tk-) cell lysates, mean, read-out: PKi alpha-2 2b (converted).
Setting [11] is: [3H]rauwolscine, human receptor, LM(tk-) cell lysates, mean, read-out: PKi alpha-2 2c (converted).

Counter-ions that a name gives are not always drawn. Like-named read-outs stand apart in the source and are kept apart here.

For the compound `CC(=O)C1=C(C)NC(C)=C(C(=O)NCCCN2CCC(c3ccccc3)(c3ccccc3)CC2)C1c1ccc([N+](=O)[O-])cc1` (centres unmarked) [Example 47, 5-Acetyl-1,4-dihydro-2,6-dimethyl-4-(4-nitrophenyl)-3-{N-[3-(4,4-diphenylpiperidin-1-yl)propyl]}carboxamidopyridine], in experiment [1] (setting [5]), the “pKi alpha-1 1b” value turned out to be 6.58. In addition, in experiment [2] ([3H]rauwolscine, LM(tk-) cell line L-α2A, SEM and n in lines below), the “pKi alpha-2 2a” value was 6.22. The “pKi alpha-2 2b” value in experiment [3] (setting [6]) is 6.36. For the same compound, in experiment [4] (setting [7]), the “pKi alpha-2 2c” value was found to be 6.43.
In the case of `COC(=O)C1=C(C)NC(C)=C(C(=O)OCCCN2CCCCC2)C1c1ccc([N+](=O)[O-])cc1` (centres unmarked) [Example 50, 1,4-Dihydro-5-methoxycarbonyl-2,6-dimethyl-4-(4-nitrophenyl)-3-[3-(piperidin-1-yl)propoxy]carbonylpyridine hydrochloride etherate], the Ki in experiment [1] (cloned human receptor in LM(tk-) cell membranes, SEM and n in lines below, read-out: pKi alpha-1 1b (converted)) is 3.02 µM; in experiment [2] ([3H]rauwolscine, LM(tk-) cell line L-α2A, SEM and n in lines below, read-out: pKi alpha-2 2a (converted)), 1.51 µM; in experiment [3] ([3H]rauwolscine, LM(tk-) cell line L-NGC-α2B, SEM and n in lines below, read-out: pKi alpha-2 2b (converted)) it was 2.75 µM; in experiment [4] ([3H]rauwolscine, LM(tk-) cell line L-α2C, SEM and n in lines below, read-out: pKi alpha-2 2c (converted)), 0.661 µM.
For the compound `CCC1=C(C(N)=O)C(c2ccc([N+](=O)[O-])cc2)C(C(=O)NCCCN2CCC(C(=O)OC)(c3ccccc3)CC2)=C(CCCCN=[N+]=[N-])N1` (centres unmarked) [Example 165, 2-(4-Azidobutyl)-3-{N-[3-(4-methoxycarbonyl-4-phenylpiperidin-1-yl)propyl]}carboxamido-5-carboxamido-6-ethyl-1,4-dihydro-4-(4-nitrophenyl)pyridine], the Ki is 0.575 µM in experiment [1] (setting [8]), 3.02 µM in experiment [2] (setting [9]), 1.95 µM in experiment [3] (setting [10]) and 1.51 µM in experiment [4] (setting [11]).
Consider `CCC1=C(C(=O)NC)C(c2ccc([N+](=O)[O-])cc2)C(C(=O)NCCCN2CCC(c3ccccc3)(c3ccccc3)CC2)=C(CCCCOC)N1` (centres unmarked) [Example 173, 6-Ethyl-1,4-dihydro-2-(4-methoxybutyl)-5-(N-methyl)carboxamido-4-(4-nitrophenyl)-3-{N-[3-(4,4-diphenylpiperidin-1-yl)propyl]}carboxamidopyridine], for which the Ki is 0.427 µM in experiment [1] (PKi alpha-1 1b, cloned human receptor, LM(tk-) cell membranes, mean); 0.269 µM in experiment [2] (setting [9]); 0.955 µM in experiment [3] (PKi alpha-2 2b, [3H]rauwolscine, human receptor, LM(tk-) cell lysates, mean); 1.48 µM in experiment [4] (setting [11]).
As for `CCC1=C(C(=O)NC)C(c2ccc([N+](=O)[O-])cc2)C(C(=O)NCCCN2CCC(C(=O)OC)(c3ccccc3)CC2)=C(COCCN)N1` (centres unmarked) [Example 229, 2-((2-Aminoethyl)oxy)methyl-6-ethyl-1,4-dihydro-3-(N-(3-(4-methoxycarbonyl-4-phenylpiperidin-1-yl)propyl))carbo xamido-5-N-methylcarboxamido-4-(4-nitro)phenylpyridine], the Ki in experiment [1] (setting [8]) was 1.38 µM; in experiment [2] (setting [9]), 3.02 µM; in experiment [3] (setting [10]), 5.37 µM; in experiment [4] (setting [11]) it was 0.891 µM.
`COC(=O)C1(c2ccccc2)CCN(CCCNC(=O)C2=C(COCCN=[N+]=[N-])NC(C)=C(C(N)=O)C2c2ccc([N+](=O)[O-])cc2)CC1` (centres unmarked) [Example 183, 2-[(2-Azidoethoxy)methyl]-5-carboxamido-1,4-dihydro-3-{N-[3-(4-methoxycarbonyl-4-phenylpiperidin-1-yl)propyl]}carboxamido-6-methyl-4-(4-nitrophenyl)pyridine]: the Ki in experiment [1] (setting [8]) is 0.229 µM; in experiment [2] (setting [9]) it was 1.05 µM; in experiment [3] (setting [10]), 0.724 µM; in experiment [4] (setting [11]), 0.437 µM.
Regarding `CCC1=C(C(N)=O)C(c2ccc([N+](=O)[O-])cc2)C(C(=O)NC2CCN(CCc3c[nH]c4ccccc34)CC2)=CN1CC` (centres unmarked) [Example 123, 5-Carboxamido-1,6-diethyl-1,4-dihydro-3-(N-{1-[2-(3-indolyl)ethyl]piperidin-4-yl}) carboxamide-4-(4-nitrophenyl)pyridine], the “pKi alpha-1 1b” value in experiment [1] (cloned human α1B receptor, LM(tk−) cell membranes) is recorded as 8.01. Also, the “pKi alpha-2 2a” value in experiment [2] ([3H]rauwolscine, human α2A receptor, LM(tk−) cells) amounted to 6.03. Also, the “pKi alpha-2 2b” value in experiment [3] ([3H]rauwolscine, human α2B receptor, LM(tk−) cells) is reported as 6.87. Also, the “pKi alpha-2 2c” value in experiment [4] ([3H]rauwolscine, human α2C receptor, LM(tk−) cells) turned out to be 6.42.
Turning to `COC(=O)C1(c2ccccc2)CCN(CCCNC(=O)C2=C(COCCCN)NC(C)=C(C(C)=O)C2c2ccc([N+](=O)[O-])cc2)CC1` (centres unmarked) [Example 241, 5-Acetyl-2-((3-aminopropyl)oxy)methyl-1,4-dihydro-3-(N-(3-(4-methoxycarbonyl-4-phenylpiperidin-1-yl)propyl))carboxamido-6-methyl-4-(4-nitro)phenylpyridine], the Ki in experiment [1] (cloned human α1B receptor, LM(tk-) cell membranes, read-out: PKi alpha-1 1b (converted)) is 0.49 µM; in experiment [2] it was 1.58 µM; in experiment [3] (PKi alpha-2 2b) it was 1.17 µM; in experiment [4] (PKi alpha-2 2c), 0.398 µM.
On to `CC1=C(C(=O)NCCCN2CCC(c3ccccc3)(c3ccccc3)CC2)C(c2ccc([N+](=O)[O-])cc2)C(C(=O)N(C)C)=C(C)N1` (centres unmarked) [Example 39, 1,4-Dihydro-2,6-dimethyl-3-(N,N-dimethyl) carboxamido-4-(4-nitrophenyl)-5-{N-[3-(4,4-diphenylpiperidin-1-yl)propyl]}carboxamidopyridine], for which the “pKi alpha-1 1b” value in experiment [1] (setting [5]) is listed as 5.93. For the same compound, the “pKi alpha-2 2b” value in experiment [3] (setting [6]) turned out to be 5.74. In experiment [4] (setting [7]), the “pKi alpha-2 2c” value turned out to be 6.09.
